# Patent publication US20220340665A1, “INHIBITOR AGAINST EXPRESSION OF IMMUNE CHECKPOINT MOLECULE” (RENASCIENCE INC., priority 2019, published 2022)
# Entries after “also recorded” stand apart in the source; their conditions may differ.
# Legend:
# [1] = system: mouse leukemia cell line (32Dp210); assay: PD-L1 mRNA expression by real-time PCR in 32Dp210 cells (Experimental Example 4); format: cell-based; conditions: inhibitor 50 μM with rPAI-1 40 nM or 100 nM, overnight, listed as PAI-1 inhibitor
# Experimental: The culture supernatant of the cells overexpressing PAI-1 (32D PAI-1 OE) prepared in Experimental Example 1 (PAI-1 OE sup) was added to a mouse leukemia cell line (32Dp210). In addition, those obtained by adding the PAI-1 inhibitor to a concentration of 50 μM, together with rPAI-1 (40 nM or 100 nM), were also prepared. Then, culturing was performed on a 96-well plate at 37° C., 5% CO2, overnight. The cells were collected, RNA was extracted using ISOGEN2 (Nippon Gene Co., Ltd.), and 100 ng of RNA was subjected to a reverse transcription reaction using a PrimeScript RT-PCR kit (Takara Bio Inc.) to obtain cDNA. The PD-L1 gene expression level was monitored by real-time PCR using TaqMan Fast Advanced Master Mix (Thermo Fisher Scientific). PD-L1 (Mm00452054_m1, Thermo Fisher Scientific) was used as the primer. To standardize the RNA amount, the expression level of 18S rRNA (Hs99999901_s1, Thermo Fisher Scientific) was also measured simultaneously. The PD-L1 gene expression level was determined using a comparative Ct method, which was shown in the graph as a ratio relative to the control group.
# [2] = system: mouse leukemia cell line (32Dp210); assay: PD-L1 expression in leukemic cells of mice transplanted with 32Dp210 (Experimental Example 5); format: in vivo, mice (C3H/HEJ); conditions: peripheral blood, 10 mg/kg orally once daily, 7 days, vs vehicle, listed as PAI-1 inhibitor
# Experimental: Specifically, 5×10^5 cells of a mouse leukemia cell line (32Dp210) were transplanted into mice (C3H/HEJ), and engraftment was confirmed one week later. Subsequently, the PAI-1 inhibitor was orally administered once daily at 10 mg/kg for a total of 7 days. On the next day of the final administration, the peripheral blood or the spleen was collected from the mice. The spleen was mechanically dispersed by grinding through nylon mesh. The peripheral blood and spleen cells were independently hemolyzed with an ammonium chloride solution and then stained with an anti-PD-L1 antibody (clone name: 10F.G92) labeled with Allophycocyanin (APC) to determine the PD-L1 expression level in the leukemic cells with a flow cytometer. As a comparative control experiment, instead of the PAI-1 inhibitor, only physiological saline (vehicle) was administered to the mice transplanted with the mouse leukemia cell line, and the PD-L1 expression level in the leukemic cells was determined with a flow cytometer in the same manner as described above.
# [3] = system: human ovarian clear cell adenocarcinoma cell line (ES2); assay: PD-L1 expression in tumor cells of ES2 tumor mass in nude mice (Experimental Example 9); format: in vivo; conditions: ES2 subcutaneous in nude mice; 10 mg/kg orally once daily, 7 days; vs vehicle
# Experimental: The efficacy of the PAI-1 inhibitor against human cancer cells (ovarian cancer cells) was studied in vivo. Specifically, 5×10^5 cells of a human ovarian clear cell adenocarcinoma cell line (ES2) were transplanted subcutaneously in nude mice. One week later, engraftment of more than 5 mm of tumor mass in the major axis was confirmed. Subsequently, the PAI-1 inhibitor was orally administered once daily at 10 mg/kg for a total of 7 days. On the next day of the final administration, the tumor mass was collected from the mice, chopped with scissors, suspended in a 0.025% collagenase solution (FUJIFILM Wako Pure Chemical Corporation), and treated at 37° C. for 2 hours to break cell-cell bonds. The cells obtained by enzymatic treatment were stained with an anti-PD-L1 antibody (clone name: 10F.G92) labelled with Allophycocyanin (APC), and the PD-L1 expression level in the tumor cells was determined with a flow cytometer. As a comparative control experiment, cells were collected also from the tumor mass in the same manner in terms of a mouse group to which only physiological saline (vehicle) was administered instead of the PAI-1 inhibitor, and the PD-L1 expression level in the tumor cells was determined with a flow cytometer.
# [4] = system: mouse colorectal cancer cell line (MC38); assay: Size of subcutaneous MC38 tumor mass in mice (Experimental Example 11); format: in vivo, mice (C57BL6); conditions: PAI-1 inhibitor 10 mg/kg orally daily 14 days, anti-PD1 antibody 15 μg i.p. every 3 days, 3 times, 14 and 21 days
# Text: Mice (C57BL6) were divided into 1) an untreated group (vehicle) (n=15), 2) a single-administration group of anti-PD1 antibody (anti-PD-1 Ab), 3) a single-administration group of PAI-1 inhibitor (PAI-1 inhibitor), and 4) a combination group of anti-PD1 antibody and PAI-1 inhibitor (anti-PD-1 Ab+PAI-1 inhibitor) (n=18 for 2) to 4)). Then, 5×10^5 cells of the mouse colorectal cancer cell line (MC38) were transplanted subcutaneously into each mouse. One week after transplantation, engraftment of more than 5 mm of a tumor mass in the major axis was confirmed. Subsequently, the PAI-1 inhibitor (10 mg/kg) was orally administered once daily to groups 3) and 4) above for a total of 14 consecutive days. For groups 2) and 4), 15 μg of anti-PD1 antibody was intraperitoneally administered every 3 days (3 times in total) from the same day as the administration day of the PAI-1 inhibitor. For the untreated group, physiological saline was orally administered. The size of the tumor mass was measured 2 weeks (14 days) and 3 weeks (21 days) after the transplantation (0 days).
# [5] = system: mouse colorectal cancer cell line (MC38); assay: MC38 tumor mass in immunodeficient and wild-type mice (Experimental Example 12); format: in vivo; conditions: 10 mg/kg orally once daily, 14 days, listed as PAI-1 inhibitor
# Experimental: To confirm this point, the following experiment was performed. Specifically, 5×10^5 cells of a mouse colorectal cancer cell line (MC38) were subcutaneously transplanted into immunodeficient mice (Rag2/IL-2R-KO) and wild-type mice (WT, for control). The immunodeficient mice lacked the RAG2 gene and the IL-2 receptor γ chain gene, and immune cells (T cells, B cells, NK cells) were not congenitally present in the body. One week later, engraftment of more than 5 mm of a tumor mass in the major axis was confirmed. Subsequently, the PAI-1 inhibitor (10 mg/kg) or physiological saline (vehicle) was orally administered to each mouse once daily for a total of 14 consecutive days.
# [6] = system: CD8+ T cells; assay: Cytotoxic T cells in MC38 tumor mass by flow cytometry (Experimental Example 16); format: in vivo, mice (C57BL6); conditions: oral administration for one week, vs vehicle
# Text: 1) The untreated group and 3) the single-administration group of PAI-1 inhibitor (cancer-bearing mice) of Experimental Example 11, after tumor engraftment, were orally administered with physiological saline (vehicle) or the PAI-1 inhibitor for one week. Thereafter, the tumor was collected, the T cells were stained with an anti-CD45 antibody, an anti-CD3 antibody, an anti-CD4 antibody, an anti-CD8 antibody, and an anti-perforin antibody, and the percentage of cytotoxic T cells in the tumor mass was determined with a flow cytometer.
# [7] = non-clinical and clinical studies (JP2020-088416A); cited from earlier work
compound,measurement,setting,value
"O=C(Nc1ccc(Cl)cc1C(=O)[O-])c1cccc(-c2cccc3cccnc23)c1.[Na+] [Example 68, 5-chloro-2-(((3-(quinolin-8-yl)phenyl)carbonyl)amino)sodium benzoate]",increase in PD-L1 mRNA expression by rPAI-1,[1],inhibited the induction of the expression; also recorded: suppressed
same,PD-L1 expression level in leukemia cells,[2],reduced PD-L1 expression level; also recorded: lower PD-L1 expression level
same,PD-L1 expression level in the tumor cells,[3],reduced
same,size of the tumor mass,[4],significantly regressed; also recorded: tumor regression
same,tumor regression effect,[5]; immunodeficient mice (Rag2/IL-2R-KO),no such an effect was observed; also recorded: not observed
same,tumor regression effect,"[5]; wild-type mice (WT), 10 mg/kg",achieved a tumor regression effect; also recorded: observed
same,percentage of intratumoral infiltration of CD8+ T cells (effector T cells),[6],increased
same,safety by oral administration,[7],no safety issues
